Consider eleven compounds from patent US9518018B2, “3-alkoxy, thioalkyl and amino-4-amino-6-(substituted)picolinates and their use as herbicides” (Dow AgroSciences LLC, priority 2011, dated 2016).

Assay in all cases: Post-Emergent Test I herbicidal activity
What all share (format): in vivo

The subject of assay [1] is CHEAL: lambsquarters (Chenopodium album). To be noted: Chenopodium album, post-emergence, 336 h, read-out: Visual Growth Reduction (%)-14 Days after Application CHEAL; for pest or weed control at 70 g/ha: Table 3, 70 g ai/ha; for pest or weed control at 140 g/ha: Table 3, 140 g ai/ha. As to the method: (§1) Seeds or nutlets of the desired test plant species were planted in Sun Gro Metro-Mix® 360 planting mixture, which typically has a pH of 6.0 to 6.8 and an organic matter content of about 30 percent, in plastic pots with a surface area of 64 square centimeters. When required to ensure good germination and healthy plants, a fungicide treatment and/or other chemical or physical treatment was applied. The plants were grown for 7-21 d in a greenhouse with an approximate 15 h photoperiod which was maintained at about 23-29° C. during the day and 22-28° C. during the night. Nutrients and water were added on a regular basis and supplemental lighting was provided with overhead metal halide 1000-Watt lamps as necessary. The plants were employed for testing when they reached the first or second true leaf stage.
(§2) A weighed amount, determined by the highest rate to be tested, of each test compound was placed in a 25 mL glass vial and was dissolved in 4 mL of a 97:3 v/v mixture of acetone and DMSO to obtain concentrated stock solutions. […] The concentrated stock solutions obtained were diluted with 20 mL of an aqueous mixture containing acetone, water, isopropyl alcohol, DMSO, Atplus 411F crop oil concentrate, and Triton® X-155 surfactant in a 48.5:39:10:1.5:1.0:0.02 v/v ratio to obtain spray solutions containing the highest application rates. Additional application rates were obtained by serial dilution of 12 mL of the high rate solution into a solution containing 2 mL of 97:3 v/v mixture of acetone and DMSO and 10 mL of an aqueous mixture containing acetone, water, isopropyl alcohol, DMSO, Atplus 411F crop oil concentrate, and Triton X-155 surfactant in a 48.5:39:10:1.5:1.0:0.02 v/v ratio to obtain ½×, ¼×, ⅛× and 1/16× rates of the high rate. Compound requirements are based upon a 12 mL application volume at a rate of 187 liters per hectare (L/ha). Formulated compounds were applied to the plant material with an overhead Mandel track sprayer equipped with 8002E nozzles calibrated to deliver 187 L/ha over an application area of 0.503 square meters at a spray height of 18 inches (43 cm) above the average plant canopy height. Control plants were sprayed in the same manner with the solvent blank.
(§3) The treated plants and control plants were placed in a greenhouse as described above and watered by subirrigation to prevent wash-off of the test compounds. After 14 d, the condition of the test plants as compared with that of the untreated plants was determined visually and scored on a scale of 0 to 100 percent where 0 corresponds to no injury and 100 corresponds to complete kill.
(§4) By applying the well-accepted probit analysis as described by J. Berkson in Journal of the […], 48, 565 (1953) and by D. Finney in “Probit Analysis” Cambridge University Press (1952), the above data can be used to calculate GR20, GR50 and GR80 values, which are defined as growth reduction factors that correspond to the effective dose of herbicide required to kill or control 20 percent, 50 percent or 80 percent, respectively, of a target plant.

Assay [2] deals with CYPES: yellow nutsedge (Cyperus esculentus). The conditions noted are these: post-emergence, 336 h, read-out: Visual Growth Reduction (%)-14 Days after Application CYPES; for pest or weed control at 70 g/ha: Table 3, 70 g ai/ha; for pest or weed control at 140 g/ha: Table 3, 140 g ai/ha. As to the method: as §1, §2, §3, §4
Assay [3] relates to ORYSA: rice (Oryza sativa). To be noted: post-emergence, 336 h, read-out: Visual Growth Reduction (%)-14 Days after Application ORYSA; for pest or weed control at 70 g/ha: Table 3, 70 g ai/ha; for pest or weed control at 140 g/ha: Table 3, 140 g ai/ha. As to the method: as §1, §2, §3, §4
Assay [4] has as its system EPHHL: wild poinsettia (Euphorbia heterophylla). To be noted: post-emergence, 336 h, read-out: Visual Growth Reduction (%)-14 Days after Application EPHHL; for pest or weed control at 70 g/ha: Table 3, 70 g ai/ha; for pest or weed control at 140 g/ha: Table 3, 140 g ai/ha. As to the method:
as §1, §2, §3, §4

In another assay the test system is ZEAMX: corn (Zea mays). The conditions noted are these: Zea mays, post-emergence, 336 h, read-out: Visual Growth Reduction (%)-14 Days after Application ZEAMX; for pest or weed control at 70 g/ha: Table 3, 70 g ai/ha; for pest or weed control at 140 g/ha: Table 3, 140 g ai/ha. As to the method: as §1, §2, §3, §4
For assay [5], the system named is ABUTH: velvetleaf (Abutilon theophrasti). To be noted: Abutilon theophrasti, post-emergence, 336 h, read-out: Visual Growth Reduction (%)-14 Days after Application ABUTH; for pest or weed control at 70 g/ha: Table 3, 70 g ai/ha; for pest or weed control at 140 g/ha: Table 3, 140 g ai/ha. As to the method: as §1, §2, §3, §4
Assay [6] relates to ECHCG: barnyardgrass (Echinochloa crus-galli). The conditions noted are these: post-emergence, 336 h, read-out: Visual Growth Reduction (%)-14 Days after Application ECHCG; for pest or weed control at 70 g/ha: Table 3, 70 g ai/ha; for pest or weed control at 140 g/ha: Table 3, 140 g ai/ha. As to the method:
as §1, §2, §3, §4

With `COC(=O)c1nc(-c2ccc(Cl)cc2F)c(F)c(N)c1OC` [Compound 69], the pest or weed control at 70 g/ha stood at 0% in assay [1]; 100% in assay [2]; 0% in assay [3]; 100% in assay [4]; 10% in the assay on ZEAMX: corn (Zea mays); 85% in assay [5]. In assay [6], the pest or weed control at 70 g/ha was found to be 30%.

In the case of `COC(=O)c1nc(-c2ccc(Cl)c(C(C)F)c2F)c(F)c(N)c1OC` (centres unmarked) [Compound 33, methyl 4-amino-6-(4-chloro-2-fluoro-3-(1-fluoroethyl)phenyl)-5-fluoro-3-methoxypicolinate], the pest or weed control at 140 g/ha stood at 100% in assay [1]; 100% in assay [2]; 0% in assay [3]; 100% in assay [4]; 70% in the assay with ZEAMX: corn (Zea mays); 100% in assay [5]. The pest or weed control at 140 g/ha in assay [6] was 80%.

In the case of `COc1c(C(=O)O)nc(-c2ccc(C(F)(F)F)c(F)c2)c(F)c1N` [Compound 11, 4-amino-5-fluoro-6-(3-fluoro-4-(trifluoromethyl)phenyl)-3-methoxypicolinic acid], the pest or weed control at 140 g/ha in assay [1] turned out to be 100%; in assay [2], 50%; in assay [3] it was 12%; in assay [4] it was 100%; in the assay with ZEAMX: corn (Zea mays), 80%; in assay [5], 100%. Further, in assay [6], the pest or weed control at 140 g/ha amounted to 100%.

`COC(=O)c1nc(-c2ccc(Br)cc2F)c(F)c(N)c1OC` [Compound 22]: the pest or weed control at 140 g/ha in assay [1] turned out to be 100%; in assay [2], 50%; in assay [3] it was 0%; in assay [4], 100%; in the assay on ZEAMX: corn (Zea mays) it was 70%; in assay [5], 60%. In assay [6], the pest or weed control at 140 g/ha worked out at 90%.

For the compound `COc1c(C(=O)O)nc(Cl)c(F)c1N` [Compound 51], the pest or weed control at 70 g/ha in assay [1] turned out to be 90%; in assay [2], 0%; in assay [3] it was 0%; in assay [4] it was 100%; in the assay with ZEAMX: corn (Zea mays), 0%; in assay [5] it was 0%. In assay [6], the pest or weed control at 70 g/ha is 0%.

With `COC(=O)c1nc(-c2ccc(OC)nc2)c(F)c(N)c1OC` [Compound 75, methyl 4-amino-3-fluoro-5,6′-dimethoxy-[2,3′-bipyridine]-6-carboxylate], the pest or weed control at 140 g/ha in assay [1] was 85%; in assay [2], 95%; in assay [3], 0%; in assay [4] it was 85%; in the assay with ZEAMX: corn (Zea mays), 85%; in assay [5] it was 90%. Further, in assay [6], the pest or weed control at 140 g/ha was found to be 0%.

On to `COc1c(C(=O)O)nc(-c2ccc(Cl)cc2F)c(F)c1N` [Compound 71], for which the pest or weed control at 70 g/ha in assay [1] is 90%; in assay [2], 100%; in assay [3] it was 0%; in assay [4], 100%; in the assay on ZEAMX: corn (Zea mays) it was 70%; in assay [5], 80%. Besides, the pest or weed control at 70 g/ha in assay [6] stood at 85%.

Turning to `Nc1cc(-c2ccc(Cl)cc2F)nc(C(=O)O)c1OCC(F)(F)F` [Compound 70], the pest or weed control at 280 g/ha was 25% in assay [1] (Table 3, 280 g ai/ha); 85% in assay [2] (Table 3, 280 g ai/ha); 0% in assay [3] (Table 3, 280 g ai/ha); 100% in assay [4] (Table 3, 280 g ai/ha); 75% in the assay on ZEAMX: corn (Zea mays) (Table 3, 280 g ai/ha); 50% in assay [5] (Table 3, 280 g ai/ha). Also, the pest or weed control at 280 g/ha in assay [6] (Table 3, 280 g ai/ha) amounted to 0%.

As for `C#Cc1ccc(-c2nc(C(=O)OC)c(OC)c(N)c2F)cc1` [Compound 30, methyl 4-amino-6-(4-ethynylphenyl)-5-fluoro-3-methoxypicolinate], the pest or weed control at 140 g/ha in assay [1] came to 100%; in assay [2], 100%; in assay [3], 0%; in assay [4] it was 100%; with ZEAMX: corn (Zea mays), 70%; in assay [5], 50%. Moreover, in assay [6], the pest or weed control at 140 g/ha worked out at 0%.

Take `COc1c(C(=O)O)nc(-c2ccc(C3CC3)nc2)c(F)c1N` [Compound 77, 4-amino-6′-cyclopropyl-3-fluoro-5-methoxy-[2,3′-bipyridine]-6-carboxylic acid]: the pest or weed control at 140 g/ha in assay [1] came to 75%; in assay [2], 90%; in assay [3] it was 65%; in assay [4] it was 95%; with ZEAMX: corn (Zea mays) it was 95%; in assay [5] it was 80%. Besides, the pest or weed control at 140 g/ha in assay [6] came to 85%.

As to `COC(=O)c1nc(C(C)(F)F)cc(N)c1OC` [Compound 81, methyl 4-amino-6-(1,1-difluoroethyl)-3-methoxypicolinate], the pest or weed control at 140 g/ha worked out at 80% in assay [1]; 0% in assay [2]; 0% in assay [3]; 60% in assay [4]; 0% in the assay with ZEAMX: corn (Zea mays); 10% in assay [5]. In assay [6], the pest or weed control at 140 g/ha was determined as 0%.
